Biological target: recombinant human renin (Homo sapiens (Human), UniProt P00797)
Assay: In-vitro fluorescence assay for identification of renin-inhibitory activity
Assay type: biochemical
Details: renin 10 nM, pH 7.2
Protocol: In order to identify modulators of renin activity, a continuous enzymatic test was carried out with a synthetic peptide which carries a fluorescent group Edans (=(5-(aminoethyl)aminonaphthalenesulfonate) which is quenched by energy transfer from a Dabcyl (4′-dimethylaminoazobenzene-4-carboxylate) group on the same molecule, in Greiner 384-well microtitre plates. Cleavage of the peptidic substrate by renin causes an increase in the fluorescence intensity. In order to determine the efficacy of substances, the time-dependent increase in the fluorescence intensity in the presence of the substance was compared with the time-dependent increase in fluorescence in the absence of substances. The reference substance used was renin inhibitor 2 (Z-Arg-Arg-Pro-Phe-His-Sta-Ile-His N-Boc-Lys methyl ester Z) (Sigma-Aldrich). The substrate used was renin FRET substrate I (DABCYL-g-Abu-Ile-His-Pro-Phe-His-Leu-Val-Ile-His-Thr EDANS) (Anaspec, Fremont Calif.). The enzyme employed was recombinant human renin (Proteos, Kalamazoo, Mich.) in a final concentration of 10 nM. The test was carried out in 50 mM Mops buffer, 1.5% (v/v) of DMSO, 0.1% (w/v) of Igepal®, pH 7.2, 0.5% (w/v) of BSA. 2 μl of each substance solution with serially diluted substance concentration were added to in each case 4 μl of renin solution and incubated at room temperature for 15 min. The reaction was started by addition of 4 μl of substrate solution (final concentration 5 μM). After carrying out a starting-point fluorescence measurement (excitation wavelength 340 nm/emission wavelength 495 nm) using an Envision multilabel reader (Perkin Elmer), the reaction was incubated at 37° C. for 60 min. The amount of peptide fragment cleaved off during the reaction time was subsequently measured by determination of the increase in the fluorescence intensity at 495 nm (excitation wavelength 340 nm).

Chain of recombinant human renin (P00797 67-406): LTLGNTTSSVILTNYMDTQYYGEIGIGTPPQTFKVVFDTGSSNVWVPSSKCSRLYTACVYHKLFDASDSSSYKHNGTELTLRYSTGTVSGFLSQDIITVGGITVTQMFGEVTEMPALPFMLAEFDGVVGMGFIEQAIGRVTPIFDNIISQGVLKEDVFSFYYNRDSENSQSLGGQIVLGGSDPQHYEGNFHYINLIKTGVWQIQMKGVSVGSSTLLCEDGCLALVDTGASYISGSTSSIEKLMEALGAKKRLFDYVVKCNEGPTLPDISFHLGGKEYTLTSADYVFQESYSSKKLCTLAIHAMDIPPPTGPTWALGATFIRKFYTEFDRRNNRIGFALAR

**Q.** `CC(C)[C@H](NC(=O)Cc1cccc(OC(F)(F)F)c1)C(=O)N[C@@H](Cc1ccccc1)[C@@H](O)CCC(=O)NCCc1ccccc1` [Compound A3, (4S,5S)-4-Hydroxy-5-{(S)-3-methyl-2-[2-(3-trifluoromethoxyphenyl)-acetylamino]butyrylamino}-6-phenylhexanoic acid phenethylamide] was tested. Which IC50 did it give?
**A.** The IC50 was over 30 µM.

**Q.** `COc1ccc(CC(=O)N[C@H](C(=O)N[C@@H](Cc2ccccc2)[C@@H](O)CCC(=O)NCCc2ccccc2)C(C)C)cc1OC` [Compound A5, (4S,5S)-5-{(S)-2-[2-(3,4-Dimethoxyphenyl)acetylamino]-3-methylbutyryl-amino}-4-hydroxy-6-phenylhexanoic acid phenethylamide] was tested. Which IC50 did it give?
**A.** Its IC50 is over 30 µM.

**Q.** For `COc1ccc(CC(=O)N[C@H](C(=O)N[C@@H](Cc2ccccc2)[C@@H](O)CCC(=O)NCCc2ccccc2)C(C)C)cc1` [Compound A7, (4S,5S)-4-Hydroxy-5-{(S)-2-[2-(4-methoxyphenyl)acetylamino]-3-methyl-butyrylamino}-6-phenylhexanoic acid phenethylamide], which IC50 is on record?
**A.** The IC50 was over 30 µM.

**Q.** `COc1cccc(CC(=O)N[C@H](C(=O)N[C@@H](Cc2ccccc2)[C@@H](O)CCC(=O)NCCc2ccccc2)C(C)C)c1` [Compound A8, (4S,5S)-4-Hydroxy-5-{(S)-2-[2-(3-methoxyphenyl)acetylamino]-3-methyl-butyrylamino}-6-phenylhexanoic acid phenethylamide] was tested. Which IC50 did it give?
**A.** Its IC50 is over 30 µM.

**Q.** Which IC50 does the source give for `COc1ccccc1CC(=O)N[C@H](C(=O)N[C@@H](Cc1ccccc1)[C@@H](O)CCC(=O)NCCc1ccccc1)C(C)C` [Compound A9, (4S,5S)-4-Hydroxy-5-{(S)-2-[2-(2-methoxyphenyl)acetylamino]-3-methyl-butyrylamino}-6-phenylhexanoic acid phenethylamide] here?
**A.** The IC50 was over 30 µM.

**Q.** `Cc1ccc(OCC(=O)N[C@H](C(=O)N[C@@H](Cc2ccccc2)[C@@H](O)CCC(=O)NCCc2ccccc2)C(C)C)cc1C` [Compound A10, (4S,5S)-5-{(S)-2-[2-(3,4-Dimethylphenoxy)acetylamino]-3-methylbutyryl-amino}-4-hydroxy-6-phenylhexanoic acid phenethylamide] was tested. Which IC50 did it give?
**A.** The IC50 was over 30 µM.

**Q.** `CC(C)[C@H](NC(=O)Cc1cccc2ccccc12)C(=O)N[C@@H](Cc1ccccc1)[C@@H](O)CCC(=O)NCCc1ccccc1` [Compound A12, (4S,5S)-4-Hydroxy-5-[(S)-3-methyl-2-(2-naphthalen-1-ylacetylamino)-butyrylamino]-6-phenylhexanoic acid phenethylamide] was tested. Which IC50 did it give?
**A.** Its IC50 is over 30 µM.

**Q.** For `Cc1cccc(C)c1NC(=O)CC[C@H](O)[C@H](Cc1ccccc1)NC(=O)[C@@H](NC(=O)Cc1cccc(Oc2ccccc2)c1)C(C)C` [Compound A14, (4S,5S)-4-Hydroxy-5-{(S)-3-methyl-2-[2-(3-phenoxyphenyl)acetylamino]-butyrylamino}-6-phenylhexanoic acid (2,6-dimethylphenyl)amide], which IC50 is on record?
**A.** The IC50 was over 30 µM.

**Q.** `CC(C)[C@H](NC(=O)Cc1cccc(Oc2ccccc2)c1)C(=O)N[C@@H](Cc1ccccc1)[C@@H](O)CCC(=O)NCc1ccccc1` [Compound A15, (4S,5S)-4-Hydroxy-5-{(S)-3-methyl-2-[2-(3-phenoxyphenyl)acetylamino]-butyrylamino}-6-phenylhexanoic acid benzylamide] was tested. Which IC50 did it give?
**A.** The IC50 was over 30 µM.

**Q.** Which IC50 does the source give for `CC(C)[C@H](NC(=O)Cc1cccc(Oc2ccccc2)c1)C(=O)N[C@@H](Cc1ccccc1)[C@@H](O)CCC(=O)N1CCc2ccccc21` [Compound A16, (S)-N-[(1S,2S)-1-Benzyl-5-(2,3-dihydroindol-1-yl)-2-hydroxy-5-oxopentyl]-3-methyl-2-[2-(3-phenoxyphenyl)acetylamino]butyramide] here?
**A.** The IC50 was over 30 µM.

**Q.** `CCOc1cccc(CC(=O)N[C@H](C(=O)N[C@@H](Cc2ccccc2)[C@@H](O)CCC(=O)NCCc2ccccc2)C(C)C)c1` [Compound A19, (4S,5S)-5-{(S)-2-[2-(3-Ethoxyphenyl)acetylamino]-3-methylbutyrylamino}-4-hydroxy-6-phenylhexanoic acid phenethylamide] was tested. Which IC50 did it give?
**A.** The IC50 was over 30 µM.
